pEC50: −log10 of the molar value. Where two headings read alike, the source gives them in different places.
Tests used:
[1] = tested on: HCV genotype 1a (H77 strain) replicon in HUH-7 cells; experiment: HCV replicon luciferase reporter assay, genotype 1a; format: cell-based; conditions: Hepatitis C virus, Huh-7, 72 h, HCV genotype 1a replicon luciferase, 3 days incubation
Method in brief: (§1)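 Replicon inhibition for both genotypes was measured as Renilla luciferase signal (EnduRen, 7.5 μM final, 2 h) after 3-day, 37° C exposure of replicon-bearing HUH-7 cells in 4% FCS DMEM, 0.5% DMSO. The 1b construct carries S1179I; the 1a H77 construct carries P1496L and S2204I. Twenty-point, 3-fold dilutions were fitted four-parametrically for EC50, and CC50 was taken from multiplexed Cell Titer-Blue.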

[2] = tested on: HCV genotype 1b (Con1) replicon in HUH-7 cells; experiment: HCV replicon luciferase reporter assay, genotype 1b; format: cell-based; conditions: Hepatitis C virus, Huh-7, 72 h, HCV genotype 1b replicon luciferase, 3 days incubation
Method in brief: as §1

C[C@@H]1CC/C=C\[C@@H]2C[C@@]2(C(=O)NS(=O)(=O)C2(C)CC2)NC(=O)[C@@H]2C[C@@H](Oc3nccc4c5c(ccc34)OCCO5)CN2C(=O)[C@@H](NC(=O)O[C@@H]2C[C@@H]3C[C@@H]3C2)[C@H](C)C1 [Compound 5249, (1R,3r,5 S)-bicyclo[3.1.0]hexan-3-yl((2R,6S,7R,9R,13aS,14aR,16aS,Z)-2-((2,3-dihydro-[1,4]dioxino[2,3-f]isoquinolin-7-yl)oxy)-7,9-dimethyl-14a-(((1-methylcyclopropyl)sulfonyl)carbamoyl)-5,16-dioxo-1,2,3,5,6,7,8,9,10,11,13a,14,14a,15,16,16a-hexadecahydrocyclopropa[e]pyrrolo[1,2-a][1,4]diazacyclopentadecin-6-yl)carbamate]
pEC50 ([1]; read-out: LE_1a (EC50, range)): > 8.26
pEC50 ([2]; read-out: LE_1b (EC50, range)): > 8.26

C[C@H]1CC/C=C\[C@@H]2C[C@@]2(C(=O)NS(=O)(=O)C2(C)CC2)NC(=O)[C@@H]2C[C@@H](Oc3nccc4c5c(ccc34)OCCO5)CN2C(=O)[C@@H](NC(=O)OCC2(C)CC2)[C@H](C)C1 [Compound 5250, (1-methylcyclopropyl)methyl ((2R,6S,7R,9S,13aS,14aR,16aS,Z)-2-((2,3-dihydro-[1,4]dioxino[2,3-f]isoquinolin-7-yl)oxy)-7,9-dimethyl-14a-(((1-methylcyclopropyl)sulfonyl)carbamoyl)-5,16-dioxo-1,2,3,5,6,7,8,9,10,11,13a,14,14a,15,16,16a-hexadecahydrocyclopropa[e]pyrrolo[1,2-a][1,4]diazacyclopentadecin-6-yl)carbamate]
pEC50 ([1]; read-out: LE_1a (EC50)): 7.65
pEC50 ([1]; read-out: LE_1a (EC50, range)): 6.99 to 8.32
pEC50 ([2]; read-out: LE_1b (EC50)): 8.26
pEC50 ([2]; read-out: LE_1b (EC50, range)): 6.99 to 8.32

C[C@@H]1CC/C=C\[C@@H]2C[C@@]2(C(=O)NS(=O)(=O)C2(C)CC2)NC(=O)[C@@H]2C[C@@H](Oc3nccc4c5c(ccc34)OCCO5)CN2C(=O)[C@@H](NC(=O)OCC2(C)CC2)[C@H](C)C1 [Compound 5251, (1-methylcyclopropyl)methyl ((2R,6S,7R,9R,13aS,14aR,16aS,Z)-2-((2,3-dihydro-[1,4]dioxino[2,3-f]isoquinolin-7-yl)oxy)-7,9-dimethyl-14a-(((1-methylcyclopropyl)sulfonyl)carbamoyl)-5,16-dioxo-1,2,3,5,6,7,8,9,10,11,13a,14,14a,15,16,16a-hexadecahydrocyclopropa[e]pyrrolo[1,2-a][1,4]diazacyclopentadecin-6-yl)carbamate]
pEC50 ([1]; read-out: LE_1a (EC50, range)): > 8.26
pEC50 ([2]; read-out: LE_1b (EC50, range)): > 8.26

C[C@H]1CC/C=C\[C@@H]2C[C@@]2(C(=O)NS(=O)(=O)C2(C)CC2)NC(=O)[C@@H]2C[C@@H](Oc3nccc4c5c(ccc34)OCCO5)CN2C(=O)[C@@H](NC(=O)O[C@H](C)C(F)(F)F)[C@H](C)C1 [Compound 5252, (R)-1,1,1-trifluoropropan-2-yl ((2R,6S,7R,9S,13aS,14aR,16aS,Z)-2-((2,3-dihydro-[1,4]dioxino[2,3-f]isoquinolin-7-yl)oxy)-7,9-dimethyl-14a-(((1-methylcyclopropyl)sulfonyl)carbamoyl)-5,16-dioxo-1,2,3,5,6,7,8,9,10,11,13a,14,14a,15,16,16a-hexadecahydrocyclopropa[e]pyrrolo[1,2-a][1,4]diazacyclopentadecin-6-yl)carbamate]
pEC50 ([1]; read-out: LE_1a (EC50)): 7.82
pEC50 ([1]; read-out: LE_1a (EC50, range)): 6.99 to 8.32
pEC50 ([2]; read-out: LE_1b (EC50)): 8.39
pEC50 ([2]; read-out: LE_1b (EC50, range)): > 8.26

C[C@@H]1CC/C=C\[C@@H]2C[C@@]2(C(=O)NS(=O)(=O)C2(C)CC2)NC(=O)[C@@H]2C[C@@H](Oc3nccc4c5c(ccc34)OCCO5)CN2C(=O)[C@@H](NC(=O)O[C@H](C)C(F)(F)F)[C@H](C)C1 [Compound 5253, (R)-1,1,1-trifluoropropan-2-yl ((2R,6S,7R,9R,13aS,14aR,16aS,Z)-2-((2,3-dihydro-[1,4]dioxino[2,3-f]isoquinolin-7-yl)oxy)-7,9-dimethyl-14a-(((1-methylcyclopropyl)sulfonyl)carbamoyl)-5,16-dioxo-1,2,3,5,6,7,8,9,10,11,13a,14,14a,15,16,16a-hexadecahydrocyclopropa[e]pyrrolo[1,2-a][1,4]diazacyclopentadecin-6-yl)carbamate]
pEC50 ([1]; read-out: LE_1a (EC50, range)): > 8.26
pEC50 ([2]; read-out: LE_1b (EC50, range)): > 8.26

C[C@H]1CC/C=C\[C@@H]2C[C@@]2(C(=O)NS(=O)(=O)C2CC2)NC(=O)[C@@H]2C[C@@H](Oc3nccc4c5c(ccc34)OC(F)(F)O5)CN2C(=O)[C@@H](NC(=O)OC(C)(C)C)[C@H](C)C1 [Compound 5256, tert-butyl ((2R,6S,7R,9S,13aS,14aR,16aS,Z)-14a-((cyclopropylsulfonyl)carbamoyl)-2-((2,2-difluoro-[1,3]dioxolo[4,5-f]isoquinolin-6-yl)oxy)-7,9-dimethyl-5,16-dioxo-1,2,3,5,6,7,8,9,10,11,13a,14,14a,15,16,16a-hexadecahydrocyclopropa[e]pyrrolo[1,2-a][1,4]diazacyclopentadecin-6-yl)carbamate]
pEC50 ([1]; read-out: LE_1a (EC50)): 7.68
pEC50 ([1]; read-out: LE_1a (EC50, range)): 6.99 to 8.32
pEC50 ([2]; read-out: LE_1b (EC50)): 7.89
pEC50 ([2]; read-out: LE_1b (EC50, range)): 6.99 to 8.32

C[C@@H]1CC/C=C\[C@@H]2C[C@@]2(C(=O)NS(=O)(=O)C2CC2)NC(=O)[C@@H]2C[C@@H](Oc3nccc4c5c(ccc34)OC(F)(F)O5)CN2C(=O)[C@@H](NC(=O)OC(C)(C)C)[C@H](C)C1 [Compound 5257, tert-butyl ((2R,6S,7R,9R,13aS,14aR,16aS,Z)-14a-((cyclopropylsulfonyl)carbamoyl)-2-((2,2-difluoro-[1,3]dioxolo[4,5-f]isoquinolin-6-yl)oxy)-7,9-dimethyl-5,16-dioxo-1,2,3,5,6,7,8,9,10,11,13a,14,14a,15,16,16a-hexadecahydrocyclopropa[e]pyrrolo[1,2-a][1,4]diazacyclopentadecin-6-yl)carbamate]
pEC50 ([1]; read-out: LE_1a (EC50, range)): > 8.26
pEC50 ([2]; read-out: LE_1b (EC50, range)): > 8.26

C[C@H]1CC/C=C\[C@@H]2C[C@@]2(C(=O)NS(=O)(=O)C2CC2)NC(=O)[C@@H]2C[C@@H](Oc3nccc4c5c(ccc34)OCCO5)CN2C(=O)[C@@H](NC(=O)OC(C)(C)C(F)(F)F)[C@H](C)C1 [Compound 5258, 1,1,1-trifluoro-2-methylpropan-2-yl((2R,6S,7R,9S,13aS,14aR,16aS,Z)-14a-((cyclopropylsulfonyl)carbamoyl)-2-((2,3-dihydro-[1,4]dioxino[2,3-f]isoquinolin-7-yl)oxy)-7,9-dimethyl-5,16-dioxo-1,2,3,5,6,7,8,9,10,11,13a,14,14a,15,16,16a-hexadecahydrocyclopropa[e]pyrrolo[1,2-a][1,4]diazacyclopentadecin-6-yl)carbamate]
pEC50 ([1]; read-out: LE_1a (EC50, range)): 6.99 to 8.32
pEC50 ([2]; read-out: LE_1b (EC50, range)): > 8.26

C[C@@H]1CC/C=C\[C@@H]2C[C@@]2(C(=O)NS(=O)(=O)C2CC2)NC(=O)[C@@H]2C[C@@H](Oc3nccc4c5c(ccc34)OCCO5)CN2C(=O)[C@@H](NC(=O)OC(C)(C)C(F)(F)F)[C@H](C)C1 [Compound 5259, 1,1,1-trifluoro-2-methylpropan-2-yl((2R,6S,7R,9R,13aS,14aR,16aS,Z)-14a-((cyclopropylsulfonyl)carbamoyl)-2-((2,3-dihydro-[1,4]dioxino[2,3-f]isoquinolin-7-yl)oxy)-7,9-dimethyl-5,16-dioxo-1,2,3,5,6,7,8,9,10,11,13a,14,14a,15,16,16a-hexadecahydrocyclopropa[e]pyrrolo[1,2-a][1,4]diazacyclopentadecin-6-yl)carbamate]
pEC50 ([1]; read-out: LE_1a (EC50, range)): > 8.26
pEC50 ([2]; read-out: LE_1b (EC50, range)): > 8.26

CCC(C)(OC(=O)N[C@@H]1C(=O)N2C[C@H](Oc3nccc4c5c(ccc34)OCCO5)C[C@H]2C(=O)N[C@]2(C(=O)NS(=O)(=O)C3CC3)C[C@H]2/C=C\CC[C@@H](C)C[C@H]1C)C(F)(F)F (some centres unmarked) [Compound 5260]
pEC50 ([1]; GETYPE1A, read-out: LE_1a (EC50, range)): > 8.26
pEC50 ([2]; GETYPE1B, read-out: LE_1b (EC50, range)): > 8.26

CCC(CC)(OC(=O)N[C@@H]1C(=O)N2C[C@H](Oc3nccc4c5c(ccc34)OCCO5)C[C@H]2C(=O)N[C@]2(C(=O)NS(=O)(=O)C3CC3)C[C@H]2/C=C\CC[C@H](C)C[C@H]1C)C(F)(F)F [Compound 5261, 3-(trifluoromethyl)pentan-3-yl ((2R,6S,7R,9S,13aS,14aR,16aS,Z)-14a-((cyclopropylsulfonyl)carbamoyl)-2-((2,3-dihydro-[1,4]dioxino[2,3-f]isoquinolin-7-yl)oxy)-7,9-dimethyl-5,16-dioxo-1,2,3,5,6,7,8,9,10,11,13a,14,14a,15,16,16a-hexadecahydrocyclopropa[e]pyrrolo[1,2-a][1,4]diazacyclopentadecin-6-yl)carbamate]
pEC50 ([1]; read-out: LE_1a (EC50)): 7.85
pEC50 ([1]; read-out: LE_1a (EC50, range)): 6.99 to 8.32
pEC50 ([2]; read-out: LE_1b (EC50)): 8.66
pEC50 ([2]; read-out: LE_1b (EC50, range)): > 8.26

CCC(CC)(OC(=O)N[C@@H]1C(=O)N2C[C@H](Oc3nccc4c5c(ccc34)OCCO5)C[C@H]2C(=O)N[C@]2(C(=O)NS(=O)(=O)C3CC3)C[C@H]2/C=C\CC[C@@H](C)C[C@H]1C)C(F)(F)F [Compound 5262, 3-(trifluoromethyl)pentan-3-yl ((2R,6S,7R,9R,13aS,14aR,16aS,Z)-14a-((cyclopropylsulfonyl)carbamoyl)-2-((2,3-dihydro-[1,4]dioxino[2,3-f]isoquinolin-7-yl)oxy)-7,9-dimethyl-5,16-dioxo-1,2,3,5,6,7,8,9,10,11,13a,14,14a,15,16,16a-hexadecahydrocyclopropa[e]pyrrolo[1,2-a][1,4]diazacyclopentadecin-6-yl)carbamate]
pEC50 ([1]; read-out: LE_1a (EC50, range)): > 8.26
pEC50 ([2]; read-out: LE_1b (EC50, range)): > 8.26
